Data: patent US20230143612A1 (Arbutus Biopharma Corporation, priority 2020, published 2023)
pIC50: −log10 of the molar value.

Molecular target: PD-L1 His protein / PD-1 Fc protein (Homo sapiens, UniProt Q9NZQ7)
Assay: HTRF Assay (PD-1/PD-L1 interaction)
Format: binding
Details: PD-L1 His 6 nM, PD-1 Fc 6 nM
Method in brief: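 Compounds tested from 20 μM down to 0.001 μM (3-fold) against 6 nM PD-L1 His and 6 nM PD-1 Fc, 15 min room temperature incubation. Detection after 1 h at room temperature with Tb cryptate anti-6HIS and XL665 anti-human IgG reagents (mixture at 0.35 nM and 6.7 nM), HTRF signal.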

PD-L1 His protein / PD-1 Fc protein, sequence (Q9NZQ7 19-238 limits assumed): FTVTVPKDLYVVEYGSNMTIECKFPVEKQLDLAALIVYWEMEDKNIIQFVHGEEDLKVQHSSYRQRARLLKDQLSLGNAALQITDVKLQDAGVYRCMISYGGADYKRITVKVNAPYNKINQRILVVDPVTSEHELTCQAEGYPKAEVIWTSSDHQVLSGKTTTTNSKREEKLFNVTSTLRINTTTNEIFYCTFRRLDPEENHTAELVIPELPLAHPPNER

Row | Structure (SMILES) | pIC50
1 | COc1cc(-c2cccc(-c3cccc(-c4ccc(CNC[C@@H]5CCC(=O)N5)c(OC)n4)c3Cl)c2Cl)cc2c1CN(C[C@@H](C)O)CC2 [Example 419, (S)-5-((((6-(2,2′-Dichloro-3′-(2-((R)-2-hydroxypropyl)-8-methoxy-1,2,3,4-tetrahydroisoquinolin-6-yl)-[1,1′-biphenyl]-3-yl)-2-methoxypyridin-3-yl)methyl)amino)methyl)pyrrolidin-2-one] | 7.59
2 | COc1nc(-c2cccc(-c3cccc(-c4cnc5c(CNC[C@@H]6CCC(=O)N6)c(C)nn5c4)c3Cl)c2Cl)ccc1CNC[C@@H]1CCC(=O)N1 [Example 420, (S)-5-((((6-(2,2′-Dichloro-3′-(2-methyl-3-(((((S)-5-oxopyrrolidin-2-yl)methyl)amino)methyl)pyrazolo[1,5-a]pyrimidin-6-yl)-[1,1′-biphenyl]-3-yl)-2-methoxypyridin-3-yl)methyl)amino)methyl)pyrrolidin-2-one] | 9.22
3 | COc1nc(-c2cccc(-c3cccc(-c4ccc5c(=O)nc(CNC[C@@H]6CCC(=O)N6)[nH]c5c4)c3Cl)c2Cl)ccc1CNC[C@@H]1CCC(=O)N1 [Example 421, 7-(2,2′-Dichloro-3′-(6-methoxy-5-(((((S)-5-oxopyrrolidin-2-yl)methyl)amino)methyl)pyridin-2-yl)-[1,1′-biphenyl]-3-yl)-2-(((((S)-5-oxopyrrolidin-2-yl)methyl)amino)methyl)quinazolin-4(1H)-one] | 7.85
4 | COc1nc(-c2cccc(-c3cccc(-c4ccc5nc(CNC[C@@H]6CCC(=O)N6)ncc5c4)c3Cl)c2Cl)ccc1CNC[C@@H]1CCC(=O)N1 [Example 422, (S)-5-((((6-(2,2′-Dichloro-3′-(2-(((((S)-5-oxopyrrolidin-2-yl)methyl)amino)methyl)quinazolin-6-yl)-[1,1′-biphenyl]-3-yl)-2-methoxypyridin-3-yl)methyl)amino)methyl)pyrrolidin-2-one] | 8.39
5 | COc1cc(-c2cccc(-c3cccc(-c4ccc(CNC[C@@H]5CCC(=O)N5)c(OC)n4)c3Cl)c2Cl)cc2c1CCN(C[C@@H]1CCC(=O)N1)C2 [Example 424, (S)-5-((((6-(2,2′-Dichloro-3′-(5-methoxy-2-(((S)-5-oxopyrrolidin-2-yl)methyl)-1,2,3,4-tetrahydroisoquinolin-7-yl)-[1,1′-biphenyl]-3-yl)-2-methoxypyridin-3-yl)methyl)amino)methyl)pyrrolidin-2-one] | 7.57
6 | COc1nc(-c2cccc(-c3cccc(-c4cc(F)c5c(c4)CCN(C[C@@H]4CCC(=O)N4)C5)c3Cl)c2Cl)ccc1CNC[C@@H]1CCC(=O)N1 [Example 425, (S)-5-((6-(2,2′-Dichloro-3′-(6-methoxy-5-(((((S)-5-oxopyrrolidin-2-yl)methyl)-amino)-methyl)-pyridin-2-yl)-[1,1′-biphenyl]-3-yl)-8-fluoro-3,4-dihydroisoquinolin-2(1H)-yl)methyl)pyrrolidin-2-one] | 8.08
7 | COc1nc(-c2cccc(-c3cccc(-c4ccc5c(n4)CCN(C[C@@H]4CCC(=O)N4)C5)c3Cl)c2Cl)ccc1CNC[C@@H]1CCC(=O)N1 [Example 426, (S)-5-((((6-(2,2′-Dichloro-3′-(6-(((S)-5-oxopyrrolidin-2-yl)-methyl)-5,6,7,8-tetrahydro-1,6-naphthyridin-2-yl)-[1,1′-biphenyl]-3-yl)-2-methoxypyridin-3-yl)-methyl)-amino)-methyl)pyrrolidin-2-one] | 10.00
8 | COc1nc(-c2cccc(-c3cccc(-c4ccc5c(c4Cl)CN(C[C@@H]4CCC(=O)N4)CC5)c3Cl)c2Cl)ccc1CNC[C@@H]1CCC(=O)N1 [Example 427, (S)-5-((8-Chloro-7-(2,2′-dichloro-3′-(6-methoxy-5-(((((S)-5-oxopyrrolidin-2-yl)methyl)-amino)-methyl)-pyridin-2-yl)-[1,1′-biphenyl]-3-yl)-3,4-dihydroisoquinolin-2(1H)-yl)methyl)pyrrolidin-2-one] | 8.28
9 | COc1nc(-c2cccc(-c3cccc(-c4ccc5c(c4F)CN(C[C@@H]4CCC(=O)N4)CC5)c3Cl)c2Cl)ccc1CNC[C@@H]1CCC(=O)N1 [Example 428, (S)-5-((7-(2,2′-Dichloro-3′-(6-methoxy-5-(((((S)-5-oxopyrrolidin-2-yl)methyl)-amino)methyl)-pyridin-2-yl)-[1,1′-biphenyl]-3-yl)-8-fluoro-3,4-dihydroisoquinolin-2(1H)-yl)methyl)-pyrrolidin-2-one] | 6.85
10 | O=C1CC[C@@H](CNCc2nc3cc(-c4cccc(-c5cccc(-c6ccn7c(=O)c(CNC[C@@H]8CCC(=O)N8)cnc7c6)c5Cl)c4Cl)ccn3c2Cl)N1 [Example 429, 8-[2-Chloro-3-[2-chloro-3-[3-chloro-2-[[[(2S)-5-oxopyrrolidin-2-yl]methylamino]methyl]imidazo[1,2-a]pyridin-7-yl]phenyl]phenyl]-3-[[[(2S)-5-oxopyrrolidin-2-yl]methylamino]methyl]pyrido[1,2-a]pyrimidin-4-one] | 6.62
11 | O=C1CC[C@@H](CNCc2nc3cc(-c4cccc(-c5cccc(-c6ccn7c(Cl)c(CNC[C@@H]8CCC(=O)N8)nc7c6)c5Cl)c4Cl)ccn3c2Cl)N1 [Example 430, (5S)-5-[[[3-Chloro-7-[2-chloro-3-[2-chloro-3-[3-chloro-2-[[[(2S)-5-oxopyrrolidin-2-yl]methylamino]methyl]imidazo[1,2-a]pyridin-7-yl]phenyl]phenyl]imidazo[1,2-a]pyridin-2-yl]methylamino]methyl]pyrrolidin-2-one] | 6.77
12 | COc1cc(-c2cccc(-c3cccc(-c4ccn5c(=O)c(CNC[C@@H]6CCC(=O)N6)cnc5c4)c3Cl)c2Cl)nc(Cl)c1CNC[C@@H]1CCC(=O)N1 [Example 431, 8-(2,2′-Dichloro-3′-(6-chloro-4-methoxy-5-(((((S)-5-oxopyrrolidin-2-yl)methyl)-amino)-methyl)pyridin-2-yl)-[1,1′-biphenyl]-3-yl)-3-(((((S)-5-oxopyrrolidin-2-yl)methyl)amino)methyl)-4H-pyrido[1,2-a]pyrimidin-4-one] | 6.74
13 | COc1nc(-c2cccc(-c3cccc(-c4cnc5c(c4)CCCC5NC[C@@H]4CCC(=O)N4)c3Cl)c2Cl)ccc1CNC[C@@H]1CCC(=O)N1 (stereo partly drawn) [Example 432, (5S)-5-(((3-(2,2′-Dichloro-3′-(6-methoxy-5-(((((S)-5-oxopyrrolidin-2-yl)-methyl)-amino)methyl)-pyridin-2-yl)-[1,1′-biphenyl]-3-yl)-5,6,7,8-tetrahydroquinolin-8-yl)amino)-methyl)-pyrrolidin-2-one] | 6.57
14 | COc1nc(-c2cccc(-c3cccc(-c4ccc5c(n4)CCC[C@@H]5NC[C@@H]4CCC(=O)N4)c3Cl)c2Cl)ccc1CNC[C@@H]1CCC(=O)N1 [Example 435, (S)-5-((((6-(2,2′-Dichloro-3′-((S)-5-((((S)-5-oxopyrrolidin-2-yl)methyl)amino)-5,6,7,8-tetrahydroquinolin-2-yl)-[1,1′-biphenyl]-3-yl)-2-methoxypyridin-3-yl)methyl)amino)methyl)pyrrolidin-2-one] | 7.64
15 | COc1nc(-c2cccc(-c3cccc(-c4cc5c(=O)n(C)c(CN(C)C[C@H](C)O)nn5c4)c3Cl)c2Cl)ccc1CNC[C@@H]1CCC(=O)N1 [Example 436, 6-(2,2′-dichloro-3′-(6-methoxy-5-(((((S)-5-oxopyrrolidin-2-yl)methyl)amino)methyl)pyridin-2-yl)-[1,1′-biphenyl]-3-yl)-2-((((S)-2-hydroxypropyl)(methyl)amino)methyl)-3-methylpyrrolo[2,1-f][1,2,4]triazin-4(3H)-one] | 7.59
